According to article PMC9083330, “An Efficient Evaluation System Accelerates α-Helical Antimicrobial Peptide Discovery and Its Application to Global Human Genome Mining” (Frontiers in Microbiology, 2022):
≈ marks a conversion by molar mass, not a printed value.

Experiments:
[1] = tested on: Shigella dysenteriae (CMCC(B)51105); experiment: MIC, broth microdilution; assay type: cell-based; conditions: read-out: MIC, 9. S. dysenteriae (CMCC(B)51105)
[2] = tested on: mouse skin wound infected with E. coli (CMCC44103); experiment: Mouse full-thickness skin wound infection and healing; assay type: in vivo, BALB/c mice
Description: (§1) Briefly, adult female BALB/c mice (18–22 g) were obtained from the Laboratory Animal Center of Shenyang Pharmaceutical University and performed in compliance with the guidelines of the Institutional Animal Care and Use Committee of Shenyang Pharmaceutical University. Each mouse was operated on an 8-mm in diameter round-shape wound under surgery conditions with an intraperitoneal injection of ketamine (90 mg/kg) and xylazine (10 mg/kg). The mice were randomly divided into 10 groups, including one normal group, three model groups, three treatment groups, and three positive groups (n = 10 in each group), then the wounds were infected with 40 μl (1 × 10^8 CFU/mL) of E. coli (CMCC44103) or drug-resistant E. coli (SYPB-3820) or S. aureus (CMCC26003), respectively, except for the normal group. Forty-eight hours later, the wounds of three model groups were treated with a sterile 0.85% saline solution. […] All the wounds were treated twice 1 day and observed every 24 h for 14 days. On days 1, 3, 5, 7, and 10, 100 mg of treated skin tissue was removed and homogenized in 0.9 ml of sterile 0.85% saline solution, then the samples were diluted and plated onto Luria-Bertani (LB) medium. After incubation at 37°C for 20 h, the CFUs were counted to represent the bacterial number in the wounds.

[3] = tested on: mouse skin wound infected with S. aureus (CMCC26003); experiment: as above; assay type: in vivo, BALB/c mice
Description: as §1

[4] = tested on: mouse skin wound infected with drug-resistant E. coli (SYPB-3820); experiment: as above; assay type: in vivo, BALB/c mice
Description: as §1

[5] = tested on: Staphylococcus aureus (CMCC26003); experiment: MIC, broth microdilution; conditions: CMCC26003, read-out: MIC, 1. S. aureus (CMCC26003)
[6] = tested on: Escherichia coli (CMCC44103); experiment: MIC, broth microdilution; conditions: CMCC44103, read-out: MIC, 5. E. coli (CMCC44103)
[7] = tested on: Klebsiella pneumoniae (CMCC46117); experiment: MIC, broth microdilution; conditions: CMCC46117, read-out: MIC, 6. K. pneumoniae (CMCC46117)
[8] = tested on: Escherichia coli (SYPB-3820) (multiple-resistant strain); experiment: MIC, broth microdilution; conditions: read-out: MIC, 7. E. coli (SYPB-3820) (multiple-resistant strain)
[9] = tested on: Acinetobacter baumannii (ACCC11038); experiment: MIC, broth microdilution; conditions: read-out: MIC, 8. A. baumannii (ACCC11038)
[10] = tested on: multiple-resistant Staphylococcus aureus (MRSA186); experiment: MIC, broth microdilution; conditions: read-out: MIC, 2. multiple-resistant S. aureus (MRSA186)
[11] = tested on: genomic DNA of E. coli (CMCC44103); experiment: Peptide and DNA binding assay (gel retardation); parameters: species or system Escherichia coli; conditions: 0.5–8 × MIC (1–16 μg/ml), 37°C, 30 min, approx. 400 ng DNA
Description: (§2) The gel retardation experiment was conducted according to the method described by [Kim et al. (2018)] for exploring the influence of AMPs on the bacterial genome. The bacterial genomic DNAs were extracted by using a Vazyme FastPure® Bacteria DNA Isolation Mini Kit (Nanjing Vazyme Biotech Co., Ltd., Nanjing, China). […] DNA treated with Penetratin (reported as cell-penetrating peptide) ([de Mello et al., 2019]) and DNA untreated with AMP were served as positive and negative control, respectively. The extent of DNA migration was measured by agarose gel electrophoresis using a gel imaging system (Beijing Sage Creation Science, Beijing, China).

[12] = tested on: genomic DNA of E. coli (SYPB-3820); experiment: Peptide and DNA binding assay (gel retardation); parameters: species or system Escherichia coli; conditions: 0.5–8 × MIC (1–16 μg/ml), 37°C, 30 min, approx. 400 ng DNA
Description: as §2

[13] = tested on: genomic DNA of S. aureus (CMCC26003); experiment: Peptide and DNA binding assay (gel retardation); parameters: species or system Staphylococcus aureus; conditions: 0.5–8 × MIC (1–16 μg/ml), 37°C, 30 min, approx. 400 ng DNA
Description: as §2

Compound: C[C@H]1COc2c(N3CCN(C)CC3)c(F)cc3c(=O)c(C(=O)O)cn1c23 [Levofloxacin]
- MIC [1]: 0.06 µg/mL (≈ 0.166 µM)
- Skin wound bacterial burden ([2]; day 10, E. coli (CMCC44103) infected wound, topical 100 μl at 8 × MIC twice a day, mean ± SD): (3.91 ± 2.87) × 10^3 CFU/g
- Decrease of bacterial load ([2]; day 10 vs initial burden, E. coli (CMCC44103)): six
- Wound healing (observation) ([2]; day 14, E. coli (CMCC44103) infected wound): basically completely healed
- Skin wound bacterial burden ([3]; day 10, S. aureus (CMCC26003) infected wound, topical 100 μl at 8 × MIC twice a day, mean ± SD): (5.37 ± 2.89) × 10^3 CFU/g
- Reduction of bacterial burden ([3]; day 10 vs initial burden, S. aureus (CMCC26003)): seven
- Wound healing (observation) ([3]; day 14, S. aureus (CMCC26003) infected wound): basically completely healed
- Skin wound bacterial burden ([4]; 10 days later, E. coli (SYPB-3820) infected wound, topical 100 μl at 8 × MIC twice a day, mean ± SD): (2.29 ± 3.78) × 10^4 CFU/g
- Reduction of bacterial counts ([4]; day 10 vs initial burden, E. coli (SYPB-3820)): five
- Wound healing (observation) ([4]; day 14, E. coli (SYPB-3820) infected wound): basically completely healed
- MIC [5]: 0.12 µg/mL (≈ 0.332 µM)
- MIC [6]: 0.03 µg/mL (≈ 0.083 µM)
- MIC [7]: 0.03 µg/mL (≈ 0.083 µM)
- MIC [8]: 8 µg/mL (≈ 22.1 µM)
- MIC [9]: 0.06 µg/mL (≈ 0.166 µM)

Compound: CN[C@H](CC(C)C)C(=O)N[C@H]1C(=O)N[C@@H](CC(N)=O)C(=O)N[C@H]2C(=O)N[C@H]3C(=O)N[C@H](C(=O)N[C@H](C(=O)O)c4cc(O)cc(O)c4-c4cc3ccc4O)[C@H](O)c3ccc(c(Cl)c3)Oc3cc2cc(c3O[C@@H]2O[C@H](CO)[C@@H](O)[C@H](O)[C@H]2O[C@H]2C[C@](C)(N)[C@H](O)[C@H](C)O2)Oc2ccc(cc2Cl)[C@H]1O [Vancomycin]
- MIC [10]: 1 µg/mL (≈ 0.69 µM)

Compound: Penetratin
- Binding to genomic DNA (gel retardation) [11]: bound with the bacterial genomic DNA and blocked the migration
- Binding to genomic DNA (gel retardation) [12]: bound with the bacterial genomic DNA and blocked the migration
- Binding to genomic DNA (gel retardation) [13]: bound with the bacterial genomic DNA and blocked the migration
